Test results from patent publication US10478431B2, “Methods for treating a cytomegalovirus infection” (priority 2014, dated 2019).
Structures can show the parent of a compound that is named as a salt.

Key:
mCMV CRS sequence = experiment: bisBenzimide binding assay (fluorescence), mCMV CRS saturation curve; conditions: BB33258 titrated from 10 μM to 1 nM; FIG. 18
Procedure: (§1) Serial dilutions for each CRS sequence were prepared. Each CRS sequence was held constant at 10 μM while BB33258 was titrated from 10 μM to 1 nM. All assays were performed at room temperature (˜25° C. in DPBS). Serial dilutions were pipetted into 96-well glass bottom plate and allowed to equilibrate for 3 hours at room temperature in the dark. Plates were then assayed for fluorescence intensity using Perkin-Elmer EnSpyre multimode plate reader. Scans from 370 nm to 580 nm for each sequence were obtained. Dilution concentrations and BB33258 combinations that saturated the PMT were excluded.

Smith strain of MCMV = experiment: Murine CMV replication kinetics in BALB/c mice; format: in vivo
Procedure: (§2) Murine CMV (MCMV) replication kinetics were performed in BALB/c mice using the Smith strain of MCMV as previously described (Orr et al., 2010) and on NIH 3T3 cells using same methods as for HCMV. Rhesus CMV (RhCMV) viral replication kinetics were performed on rhesus fibroblast cells as described in (Lilja et al., 2008).

[1] = tested on: IE2 circuit in clinically derived CMV isolate TB40E; experiment: Flow cytometry of TB40E infected ARPE cells; format: cell-based, human CMV (hCMV); conditions: 17 h and 20 h post infection, FIG. 21
Procedure: Flow cytometry was performed on TB40E infected ARPE cells at 17 h and 20 h post infection. The data was analyzed as described in Teng et al. Cell 2012, cited herein.

[2] = tested on: IE2 negative feedback (MIEP-IE2-IRES-GFP construct, LM2ig); experiment: IE2 negative feedback reporter: cells harboring LM2ig (MIEP-IE2-IRES-GFP), GFP by flow cytometry; format: cell-based, human CMV (hCMV)
Procedure: MRCS fibroblasts and life-extended human foreskin fibroblasts (HFFs) (Bresnahan and Shenk, 2000) were maintained in Dulbecco's Modified Eagle's Medium (DMEM) supplemented with 10% fetal bovine serum (FBS) and 50 U/ml penicillin-streptomycin at 37° C. and 5% CO2 in a humidified incubator. ARPE-19 cells were maintained in a 1:1 mixture of DMEM/F-12 (Mediatech Inc.) with 10% FBS (HyClone) and 50 U/ml Penicillin-Streptomycin (Mediatech Inc.). Cells were treated with a final concentration of 1 mM valproic acid (VPA) (Calbiochem™), resuspended in dimethylsulfoxide, for approximately 24 hours before imaging. Cells were treated with a final concentration of 400 nM TSA (Sigma-Aldrich) resuspended in dimethylsulfoxide, for 20-24 hours, a final concentration of 10 ng/mL TNF-α (Sigma-Aldrich) resuspended in phosphate-buffered saline (PBS), or a final concentration of 1 mM VPA (Calbiochem) for approximately 24 hours before imaging.
Standard lentiviral cloning was used to create minimal major immediate early (MIE) circuits (Dull et al., 1998). The minimal MIEP-IE2-GFP and MIEP-GFP circuits are driven by a full-length ˜2.5 kb MIE promoter-enhancer (MIEP) that spans the sequence from the MIEP modulator at the 5′ edge to the junction of immediate early (IE) exons 1 and 2. The MIEP was polymerase chain reaction (PCR)-cloned from AD169 into pLEIGW in place of the EF1a promoter. This full-length MIEP drives an IE2-IRES-GFP or mCherry-IRES-GFP cassette. IE2 was cloned from pRSV-IE86 (a gift from Jay Nelson). ARPE-19 cells were infected and fluorescence-activated cell sorter (FACS) sorted for green fluorescent protein (GFP) fluorescence to create stably expressing cell lines. Cells were treated with Trichostatin-A (TSA) for 17 hours, and GFP expression was quantified by flow cytometry. Live cells were gated by forward-versus-side scattering on a FacsCalibur™ cytometer (BD Biosciences) and mean fluorescence intensity recorded. At least 20,000 live cells were recorded for each experiment and data was analyzed in FlowJo™ (Treestar Inc.).
See WO 2014/127148 for descriptions of MIEP-IE2-reporter constructs. For example, LM2ig construct is depicted in FIG. 7 of WO 2014/127148.

[3] = tested on: CRS sequences (tetranucleotide motif TTTA); experiment: bisBenzimide binding assay (fluorescence) with CRS sequences; design: species or system hCMV; conditions: CRS sequence 10 μM, BB33258 10 μM to 1 nM, room temperature, DPBS; FIGS. 15 and 16; trihydrochloride hydrate
Procedure: as §1

Rhesus CMV (RhCMV) = experiment: Rhesus CMV viral replication kinetics on rhesus fibroblast cells; format: cell-based, rhesus monkey
Procedure: as §2

HCMV = HCMV infection across a range of virus concentrations, 10 days post-infection; format: cell-based, human CMV (hCMV); conditions: wide range of virus concentrations, FIG. 23
Text: All time points were taken at 10 days post-infection as described in Teng et al. Cell 2012 (cited herein).

[4] = tested on: clinically derived CMV isolate TB40E; experiment: HCMV TB40E virus replication and spread on epithelial cell monolayers; format: cell-based, human CMV (hCMV); conditions: FIG. 22
Text: (Cells show more CPE with drug treatment and appear more distorted and larger.) Infection at MOI of 1 on confluent epithelial cell monolayers. Images on day 5, post infection.

CN1CCN(c2ccc3[nH]c(-c4ccc5[nH]c(-c6ccc(O)cc6)nc5c4)nc3c2)CC1 [Hoechst 33258, 2′-(4-hydroxyphenyl)-5-(4-methyl-1-piperazinyl)-2,5′-bi-1H-benzimidazole trihydrochloride hydrate]
saturation of binding to mCMV CRS (mCMV CRS sequence): did not saturate within the range of concentrations tested | reduction of mCMV replication (Smith strain of MCMV): ~5 fold | IE2 circuit / IE2 expression levels [1]: breaks the IE2 circuit and amplifies IE2 expression levels | breaking of the IE2 negative feedback circuit ([2]; 24-28 hour exposure): breaks the IE2 negative feedback circuit | quiescent MIEP-driven expression in a reporter cell line ([2]; ARPE-19 cells harboring LM2ig, 20 μM Hoechst 33258, FACS, FIG. 4 upper panel): activated quiescent MIEP-driven expression | number of GFP-positive cells ([2]; ARPE-19 cells harboring LM2ig, Hoechst 33258 with or without VPA, FIG. 7): induced an increase | mean fluorescence intensity (MFI) ([2]; ARPE-19 cells harboring LM2ig, Hoechst 33258 with or without VPA, FIG. 8): increased MFI | production of IE2, as measured by GFP expression (GFP mean fluorescence intensity; GFP-MFI) ([2]; ARPE-19 cells stably transduced with LM2ig, FIG. 1, FIG. 2): increased production of IE2 | reactivation of the LM2ig minimal circuit ([2]; Hoechst 33258: after 24 hours): strongly reactivates | breaking of the circuit and reactivation of the promoter from an off (silenced) state ([2]; long-term (e.g., 8-10 days) exposure): breaks the circuit and reactivates the promoter | DNA binding specificity (motif) [3]: binds primarily to a specific tetranucleotide motif (TTTA) | cytopathic effect (CPE) and plaque formation (Rhesus CMV (RhCMV); DIC imaging, rhCMV-infected cells): reduced cytopathic effect (CPE) and plaque formation | rhCMV replication (Rhesus CMV (RhCMV); FIG. 11): inhibited rhCMV replication to an extent similar to Hoechst 33258 inhibition of hCMV replication | inhibitory effect on rhCMV replication at various MOI and after multiple rounds of replication (Rhesus CMV (RhCMV); FIG. 12): remains both at high MOI and also after multiple rounds of replication | HCMV infection (HCMV): inhibits HCMV infection across a wide range of virus concentrations | virus fitness (TB40E replication levels) ([4]; MOI of 1, confluent epithelial cell monolayers): virus fitness loss | cell to cell spread (IE2-YFP positive cells) ([4]; MOI of 1, images on day 5 post infection): inhibits cell to cell spread
